# Measured values from patent US20260200892A1, “CANNABINOID RECEPTOR 2 MODULATORS” (Hoffmann-La Roche Inc., priority 2023, published 2026).
# Read-outs that look alike come from different tables or passages of the source.
# Columns and labels:
# [1] = molecular target: T1, human CB2 receptor (hCB2R) (Homo sapiens, UniProt P34972); assay: TR-FRET hCB2R binding assay
# T1 construct: expressed in transfected cells; membranes
# hCB1R = hCB1R (Homo sapiens, UniProt P21554); assay: hCB1R binding (Kd hCB1R, Table 1)
# [2] = molecular target: T2, CB2 receptor (hCB2R), CHO cell line stably overexpressing CB2 receptor (Homo sapiens, UniProt P34972); assay: cAMP hCB2R functional assay (HTRF); format: cell-based; settings: CHO cells overexpressing CB2 receptor, forskolin; for EC50: means ± SEM of 2-3 independent experiments; for Functionality: normalized to Emax of CP55940 (100%)
# T2 construct: expressed in transfected cells; host or cells: CHO cell line stably overexpressing CB2 receptor (G418 selection)
# Method: cAMP hCB2R Functional Assay
# The Homogeneous Time Resolved Fluorescence (HTRF) Assays
# The homogeneous time-resolved fluorescence (HTRF) cAMP assay was conducted according to the manufacturer's protocol for the cAMP-Gs Dynamic kit (Cisbio). Briefly, the CHO cell line stably overexpressing CB2 receptor were maintained in Ham's F12 supplemented with 10% FBS, 100 U/ml penicillin and 100 μg/ml streptomycin (Gibco-ThermoFisher) and 400 μg/ml G418 (ThermoFisher). For CB2 compounds test, harvest the cells with Cell Dissociation Buffer and re-suspend the cells in F-12 K at 0.4*10^6 cells/mL, and dispense cells into 384-well low volume plates at 2000 cells/5 μL per well. The cells were stimulated with compounds diluted in Stimulation Buffer (2.5 μL/well) for 15 min at room temperature. And then followed by the addition of 2.5 μL 25 μM forsklin. After 15 mins incubation, reactions were stopped by 5 μL/well cAMP-d2 conjugate working solution followed by 5 μL/well of anti-cAMP cryptate working solution. After incubation for 1 h at room temperature, the plates were read in a PerkinElmer Envision reader for time-resolved fluorescence resonance energy transfer detection at 620 nm and 665 nm.
# Quantification and Statistical Analysis
# All HTRF ratio data sets of test compounds were normalized to the Emax of CP55940 (100%) and obtained the means±standard error of the mean (SEM) of 2-3 independent experiments performed in technical replicates.
# [3] = TR-FRET, membranes of SNAP-tagged human CB2R HEK293-TR cells, 100 μM GppNHp, nonspecific binding with SR144528, read-out: Kd hCB2R
# Sequence of hCB1R (P21554 whole entry): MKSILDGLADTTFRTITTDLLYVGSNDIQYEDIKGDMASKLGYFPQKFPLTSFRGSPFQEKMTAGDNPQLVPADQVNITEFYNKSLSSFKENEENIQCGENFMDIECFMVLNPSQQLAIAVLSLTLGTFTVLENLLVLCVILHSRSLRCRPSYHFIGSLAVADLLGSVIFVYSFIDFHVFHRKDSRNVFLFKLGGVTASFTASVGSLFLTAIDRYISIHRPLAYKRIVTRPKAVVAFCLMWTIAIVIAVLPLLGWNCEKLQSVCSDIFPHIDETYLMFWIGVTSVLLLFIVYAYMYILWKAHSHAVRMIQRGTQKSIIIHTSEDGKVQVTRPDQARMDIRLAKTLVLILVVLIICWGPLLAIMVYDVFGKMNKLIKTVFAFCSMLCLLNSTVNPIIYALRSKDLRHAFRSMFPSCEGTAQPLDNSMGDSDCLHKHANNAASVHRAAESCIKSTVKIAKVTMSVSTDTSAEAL
# T2 sequence (P34972 whole entry): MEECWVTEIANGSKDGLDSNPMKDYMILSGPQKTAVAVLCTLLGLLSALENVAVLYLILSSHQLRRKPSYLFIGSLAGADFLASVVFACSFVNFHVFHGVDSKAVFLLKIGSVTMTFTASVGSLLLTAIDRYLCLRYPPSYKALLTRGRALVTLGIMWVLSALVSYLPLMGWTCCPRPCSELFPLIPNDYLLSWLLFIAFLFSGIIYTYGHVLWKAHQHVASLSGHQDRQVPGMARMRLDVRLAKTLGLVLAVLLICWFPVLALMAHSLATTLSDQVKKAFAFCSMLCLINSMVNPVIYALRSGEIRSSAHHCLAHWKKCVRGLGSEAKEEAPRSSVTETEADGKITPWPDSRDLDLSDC
# T1 sequence (P34972 whole entry): as above
Compound,"Kd [1, 3]",Kd (hCB1R),EC50 [2],Functionality [2],Kd [1]
"CCCCCC(c1ccccc1)C(C)(C)c1cc(OC)c([C@H]2C=C(CNC(=O)CCCCC[n+]3cc(S(=O)(=O)[O-])ccc3/C=C/c3cc4ccc(N(CC)CC)cc4oc3=O)[C@H]3C[C@@H]2C3(C)C)c(OC)c1 (stereo partly drawn) [Example 16, 6-((E)-2-(7-(diethylamino)-2-oxo-2H-chromen-3-yl)vinyl)-1-(6-((((1S,4S,5S)-4-(2,6-dimethoxy-4-(2-methyl-3-phenyloctan-2-yl)phenyl)-6,6-dimethylbicyclo[3.1.1]hept-2-en-2-yl)methyl)amino)-6-oxohexyl)pyridin-1-ium-3-sulfonate]",214 nM,–,–,–,–
"COc1cc(C(C)(C)[C@H](CCCCCN=[N+]=[N-])c2ccccc2)cc(OC)c1[C@H]1C=C(CNC(=O)CCCCCNC(=O)CCCCC[N+]2=C(/C=C/C=C/C=C3/N(CCCS(=O)(=O)O)c4ccc(S(=O)(=O)O)cc4C3(C)C)C(C)(CCCCS(=O)(=O)O)c3cc(S(=O)(=O)[O-])ccc32)[C@H]2C[C@@H]1C2(C)C (stereo partly drawn) [Example 27, 1-(6-((6-((((1S,4S,5S)-4-(4-((R)-8-azido-2-methyl-3-phenyloctan-2-yl)-2,6-dimethoxyphenyl)-6,6-dimethylbicyclo[3.1.1]hept-2-en-2-yl)methyl)amino)-6-oxohexyl)amino)-6-oxohexyl)-2-((1E,3E)-5-((E)-3,3-dimethyl-5-sulfo-1-(3-sulfopropyl)indolin-2-ylidene)penta-1,3-dien-1-yl)-3-methyl-3-(4-sulfobutyl)-3H-indol-1-ium-5-sulfonate]",25.9 nM,7050 nM,–,–,–
"C#CCCC(=O)NCC1=C[C@H](c2c(OC)cc(C(C)(C)[C@@H](CCCCCN=[N+]=[N-])c3ccccc3)cc2OC)[C@@H]2C[C@H]1C2(C)C [Example 18, N-(((1S,4S,5S)-4-(4-((S)-8-azido-2-methyl-3-phenyloctan-2-yl)-2,6-dimethoxyphenyl)-6,6-dimethylbicyclo[3.1.1]hept-2-en-2-yl)methyl)pent-4-ynamide]",2.1 nM,–,40.7 nM,inverse agonist,–
"COc1cc(C(C)(C)[C@@H](CCCCCN=[N+]=[N-])c2ccccc2)cc(OC)c1[C@H]1C=C(CNC(=O)CCCCCCNc2ccc([N+](=O)[O-])c3nonc23)[C@H]2C[C@@H]1C2(C)C [Example 23, N-(((1S,4S,5S)-4-(4-((S)-8-azido-2-methyl-3-phenyloctan-2-yl)-2,6-dimethoxyphenyl)-6,6-dimethylbicyclo[3.1.1]hept-2-en-2-yl)methyl)-7-((7-nitrobenzo [c][1,2,5]oxadiazol-4-yl)amino)heptanamide]",158 nM,–,–,Antagonist,–
"COc1cc(C(C)(C)[C@H](CCCCCN=[N+]=[N-])c2ccccc2)cc(OC)c1[C@H]1C=C(CNC(=O)CCCCCNC(=O)CCc2ccc3n2[B-](F)(F)[N+]2=C(c4ccc[nH]4)C=CC2=C3)[C@H]2C[C@@H]1C2(C)C [Example 28, N-(((1S,4S,5S)-4-(4-((R)-8-azido-2-methyl-3-phenyloctan-2-yl)-2,6-dimethoxyphenyl)-6,6-dimethylbicyclo[3.1.1]hept-2-en-2-yl)methyl)-6-(3-(5,5-difluoro-7-(1H-pyrrol-2-yl)-5H-514,614-dipyrrolo[1,2-c:2′,1′-f][1,3,2]diazaborinin-3-yl)propanamido)hexanamide]",–,–,–,–,44.7 nM
"COc1cc(C(C)(C)[C@H](CCCCCN=[N+]=[N-])c2ccccc2)cc(OC)c1[C@H]1C=C(CNC(=O)CCCCCNC(=O)c2ccc3c(c2)C(=O)OC32c3ccc(N(C)C)cc3Oc3cc(N(C)C)ccc32)[C@H]2C[C@@H]1C2(C)C [Example 25, N-(6-((((1S,4S,5S)-4-(4-((R)-8-azido-2-methyl-3-phenyloctan-2-yl)-2,6-dimethoxyphenyl)-6,6-dimethylbicyclo[3.1.1]hept-2-en-2-yl)methyl)amino)-6-oxohexyl)-3′,6′-bis(dimethylamino)-3-oxo-3H-spiro[isobenzofuran-1,9′-xanthene]-5-carboxamide]",2.78 nM,396 nM,–,–,–
"COc1cc(C(C)(C)[C@@H](CCCCCN=[N+]=[N-])c2ccccc2)cc(OC)c1[C@H]1C=C(CN)[C@H]2C[C@@H]1C2(C)C [Example 14, ((1S,4S,5S)-4-(4-((S)-8-azido-2-methyl-3-phenyloctan-2-yl)-2,6-dimethoxyphenyl)-6,6-dimethylbicyclo[3.1.1]hept-2-en-2-yl)methanamine]",476 nM,–,2690 nM,inverse agonist,–
"CCN(CC)c1ccc2cc(/C=C/c3ccc(S(=O)(=O)[O-])c[n+]3CCCCCC(=O)NCC3=C[C@H](c4c(OC)cc(C(C)(C)C(CCCCCN=[N+]=[N-])c5ccccc5)cc4OC)[C@@H]4C[C@H]3C4(C)C)c(=O)oc2c1 (stereo partly drawn) [Example 20, 1-(6-((((1S,4S,5S)-4-(4-(8-azido-2-methyl-3-phenyloctan-2-yl)-2,6-dimethoxyphenyl)-6,6-dimethylbicyclo[3.1.1]hept-2-en-2-yl)methyl)amino)-6-oxohexyl)-6-((E)-2-(7-(diethylamino)-2-oxo-2H-chromen-3-yl)vinyl)pyridin-1-ium-3-sulfonate]",67.9 nM,–,–,–,–
"COc1cc(C(C)(C)[C@H](CCCCCN=[N+]=[N-])c2ccccc2)cc(OC)c1[C@H]1C=C(CN)[C@H]2C[C@@H]1C2(C)C [Example 15, ((1S,4S,5S)-4-(4-((R)-8-azido-2-methyl-3-phenyloctan-2-yl)-2,6-dimethoxyphenyl)-6,6-dimethylbicyclo[3.1.1]hept-2-en-2-yl)methanamine]",39.1 nM,–,112 nM,inverse agonist,–
"COc1cc(C(C)(C)[C@H](CCCCCN=[N+]=[N-])c2ccccc2)cc(OC)c1[C@H]1C=C(CNC(=O)CCCCCNC(=O)c2ccc3c(c2)C2(OC3=O)c3ccc(O)cc3Oc3cc(O)ccc32)[C@H]2C[C@@H]1C2(C)C [Example 26, N-(6-((((1S,4S,5S)-4-(4-((R)-8-azido-2-methyl-3-phenyloctan-2-yl)-2,6-dimethoxyphenyl)-6,6-dimethylbicyclo[3.1.1]hept-2-en-2-yl)methyl)amino)-6-oxohexyl)-3′,6′-dihydroxy-3-oxo-3H-spiro[isobenzofuran-1,9′-xanthene]-6-carboxamide]",30.3 nM,1280 nM,–,–,–
"C#CCCC(=O)NCC1=C[C@H](c2c(OC)cc(C(C)(C)[C@H](CCCCCN=[N+]=[N-])c3ccccc3)cc2OC)[C@@H]2C[C@H]1C2(C)C [Example 19, N-(((1S,4S,5S)-4-(4-((R)-8-azido-2-methyl-3-phenyloctan-2-yl)-2,6-dimethoxyphenyl)-6,6-dimethylbicyclo[3.1.1]hept-2-en-2-yl)methyl)pent-4-ynamide]",0.42 nM,–,33.1 nM,inverse agonist,–
"CCN(CC)c1ccc2cc(/C=C/c3ccc(S(=O)(=O)[O-])c[n+]3CCCCCC(=O)NCC3=C[C@H](c4c(OC)cc(C(C)(C)[C@@H](CCCCCN=[N+]=[N-])c5ccccc5)cc4OC)[C@@H]4C[C@H]3C4(C)C)c(=O)oc2c1 [Example 21, 1-(6-((((1S,4S,5S)-4-(4-((S)-8-azido-2-methyl-3-phenyloctan-2-yl)-2,6-dimethoxyphenyl)-6,6-dimethylbicyclo[3.1.1]hept-2-en-2-yl)methyl)amino)-6-oxohexyl)-6-((E)-2-(7-(diethylamino)-2-oxo-2H-chromen-3-yl)vinyl)pyridin-1-ium-3-sulfonate]",162 nM,–,339 nM,inverse agonist,–
